From paper PMC6799938, “Determinants of drug entry into the developing brain” (F1000Research, 2019)
Like-named read-outs stand apart in the source and are kept apart here. One block for each compound: values may come before it.

Columns and labels:
[1] = Entry of "passive" markers into brain and CSF
Description: (§1) Experimental procedure. In acute drug experiments, a single dose was injected that included traces of [ ^3H]-labelled drug (20µCi adults, 2µCi newborns). In chronic experiments, doses of unlabelled drug were given twice daily (09.00 and 17.00h) for four days before a final injection on the 5 ^th day identical to acute experiments. In passive marker experiments, all dosing was acute and contained only the [ ^3H]- or [ ^14C]-labelled compound (20µCi adults, 2µCi newborns).
(§2) In all experiments involving postnatal animals, injections were intraperitoneal (i.p.). In pregnant animals for fetal drug entry studies, the final injection of the radiolabelled marker was given intravenously (i.v.), as the peritoneal cavity required opening prior to the sampling period to gain access to the fetuses. For passive markers (L-glucose, sucrose and glycerol), fetal animals were individually injected i.p. while still within the uterine horn. All experiments took place between 09.00 and 15.00h. All pregnancy studies were completed with a single treatment group on one day. Postnatal groups were conducted with a single treatment group on one day or with the chronic group completed prior to the acute group.
(§3) Sample collection. Samples were collected 30 minutes after the final injection. This duration was chosen partly to limit any potential metabolism of the drugs and markers used but also to allow enough time for i.p. injected markers to reach the blood stream and, from there, to access the brain parenchyma across brain barriers, as well as to limit the CSF sink effect that could influence drug levels ( [Bito et al., 1966]). Thirty minutes is also within the half-life of these drugs ( [Adedoyin et al., 1987]; [Harrison & Gibaldi, 1976]; Lin & Levy, 1963). The other reason a 30-minute duration was chosen is that in the case of exposed fetal rat pups, it is difficult to maintain them in a reasonable physiological state for long periods due to deterioration of placental perfusion. Therefore, for comparative purposes, all studies were conducted at the same time.
For adult and newborn (P4) experiments, animals were terminally anaesthetized using inhaled isofluorane (IsoFlo 100% w/w, Abbott Laboratories). Blood samples were collected from the right cardiac ventricle, CSF from the cisterna magna (Habgood et al., 1992) and cortical segments of brain tissue dorsal to the ventricle of the frontal/parietal lobes, as previously described ( [Koehn et al., 2019]). Blood and CSF sampling from the P4 animals was terminal and would thus not have affected the physiological state of the animals during the experiment.
Sample preparation. Samples were processed immediately after collection. Blood was centrifuged at 7000rpm for five minutes and the plasma separated. CSF samples were examined microscopically for traces of red blood cells and discarded if contaminated (Habgood et al., 1992). In all experiments, the radioactivity in the injectate was also measured to confirm the uniformity of the injected material. All samples were weighed and transferred into scintillation vials. Soluene350 (0.5ml, PerkinElmer) was added to the brain samples. After being incubated at 36°C overnight to allow the tissue to solubilize, two drops of glacial acetic acid (Sigma) were added to neutralize the strongly alkaline Soluene350. All samples were then mixed with 5ml of scintillation fluid (Emulsifier-safe, PerkinElmer) before being transferred into the liquid scintillation counter (Tri-Carb 4910 TR, PerkinElmer) to count radioactivity disintegrations per minute (DPM) over five minutes each with luminescence correction on. Blank vials containing the same tissues without radioactivity were also counted alongside the samples to establish the level of background counts, which were always subtracted from the radioactivity counts of the corresponding experimental samples.
BrainorCSFtransfer=BrainorCSFDPM/μl/plasmaDPM/μl×100%

[2] = for Brain radioactivity level / CSF radioactivity level / Plasma radioactivity level: mean
Description: Animals. Sprague Dawley rats were supplied by the University of Melbourne Biological Research Facility and housed in groups of 2–4 (adult) or full litters per cage (25cm x 35cm x 25cm on Breeders Choice paper bedding, made from 99% recycled paper; it is biodegradable with no added chemicals), on a 12 h light/dark cycle with ad libitum access to food (dry pellets of a fixed formulation diet for laboratory rats and mice fortified with vitamins and minerals to meet the requirements of breeding animals after the diet is autoclaved or irradiated, supplied by Speciality Feeds, Western Australia) and water. Age groups investigated (at treatment completion) were time mated pregnant females at E19 (350-400g body weight), postnatal pups at P4 and non-pregnant female adults (175-230g body weight). E19 was chosen because this is a stage of development when adequate volumes of blood and CSF can be obtained for analysis from fetal rats without pooling ( [Dziegielewska et al., 1981]) and individual pups can be injected intraperitoneally while still inside the uterine horn and kept viable for periods of time. P4 was chosen because its stage of brain development is similar to that of very prematurely born but viable human infants of 22–24 weeks gestation ( [Clancy et al., 2001]). Animal numbers were based on previous experience of such experiments and were the minimum number required to detect a significant difference between groups at P <0.05.
Drug doses. Drug doses were selected based on use in clinical practice ( [Australian Medicines Handbook, 2019]) and adjusted for body weight.
as §1, §2, §3
For adult and newborn (P4) experiments, animals were terminally anaesthetized using inhaled isofluorane (IsoFlo 100% w/w, Abbott Laboratories).

[3] = Sprague Dawley, rat, in vivo
[4] = E19 fetuses, acute, 30 min - […] after administration
[5] = E19 fetuses, chronic (twice daily over five days), 30 min - […] after final dose
[6] = P4, chronic i.p. (twice daily over five days), 30 min after final dose
[7] = adult, chronic i.p. (twice daily over five days), 30 min after final dose
[8] = passive marker, E19, 60-minute, separate experimentation
[9] = passive marker, E19, 30 minutes after i.p. injection
[10] = passive marker, P4, 30 minutes after i.p. injection
[11] = passive marker, adults, 30 minutes after i.p. injection

CSF/Plasma Ratio ([1]; rat, in vivo): very low
Brain/Plasma Ratio ([1]; rat, in vivo, 0.5 h): very low
SMILES: OC[C@H]1O[C@@](CO)(O[C@H]2O[C@H](CO)[C@@H](O)[C@H](O)[C@H]2O)[C@@H](O)[C@@H]1O [sucrose, Sucrose]

transfer from maternal blood to fetal brain ([2]; E19, acute): 28%
Brain radioactivity level [2, 4]: 39.6 DPM/µg
CSF radioactivity level [2, 4]: 35.3 DPM/µl
Plasma radioactivity level [2, 4]: 57.8 DPM/µl
Brain radioactivity level [2, 5]: 146.1 DPM/µg
CSF radioactivity level [2, 5]: 119.0 DPM/µl
Plasma radioactivity level [2, 5]: 140.5 DPM/µl
Brain radioactivity level ([2]; P4, acute i.p., 30 min): 117.5 DPM/µg
CSF radioactivity level ([2]; P4, acute i.p., 30 min): 96.5 DPM/µl
Plasma radioactivity level ([2]; P4, acute i.p., 30 min): 193.6 DPM/µl
Brain radioactivity level [2, 6]: 84.4 DPM/µg
CSF radioactivity level [2, 6]: 71.0 DPM/µl
Plasma radioactivity level [2, 6]: 166.8 DPM/µl
transfer into maternal brain (brain/maternal blood) ([2]; acute): 30%
Brain radioactivity level ([2]; adult, acute i.p., 30 min): 27.3 DPM/µg
CSF radioactivity level ([2]; adult, acute i.p., 30 min): 25.4 DPM/µl
Plasma radioactivity level ([2]; adult, acute i.p., 30 min): 90.1 DPM/µl
Brain radioactivity level [2, 7]: 17.6 DPM/µg
CSF radioactivity level [2, 7]: 14.9 DPM/µl
Plasma radioactivity level [2, 7]: 83.3 DPM/µl
transfer into maternal brain (brain/maternal blood) ([2]; chronic (five days of twice-daily dosing)): 21%
SMILES: CC(=O)Nc1ccc(O)cc1 [Paracetamol]

restriction of transfer by the placenta [3]: about 60%
SMILES: C[C@H]1O[C@@H](O[C@H]2[C@@H](O)C[C@H](O[C@H]3[C@@H](O)C[C@H](O[C@H]4CC[C@@]5(C)[C@H](CC[C@@H]6[C@@H]5C[C@@H](O)[C@]5(C)[C@@H](C7=CC(=O)OC7)CC[C@]65O)C4)O[C@@H]3C)O[C@@H]2C)C[C@H](O)[C@@H]1O [Digoxin]

CSF concentration ratio [1, 8]: ~100%
brain concentration ratio [1, 8]: approximately 80%
Brain/Plasma Ratio [1, 9]: 46.8%
CSF/Plasma Ratio [1, 9]: 46.8%
Brain/Plasma Ratio [1, 10]: 82.2%
CSF/Plasma Ratio [1, 10]: 95%
Brain/Plasma Ratio [1, 11]: 85.5%
CSF/Plasma Ratio [1, 11]: 103.9%
Fetal/Maternal plasma concentration ratio, range [3]: (68.1 - 134.7) %
SMILES: OCC(O)CO [Glycerol]
